Measurements as given in patent US20250041291A1, “COMPOSITIONS AND METHODS FOR TREATING CANCER” (Emmaus Life Sciences, Inc, priority 2021, published 2025).

How the values were obtained:
Type in all cases: cell-based
[1] = system: MWCL-1 cells (adult Waldenström macroglobulinemia cells) expressing the Myd88 L265P mutation; experiment: caspase 3/7 activity (apoptosis) in MWCL-1 cells expressing Myd88 L265P
Protocol: (§1) In this study, MWCL-1 cells (adult Waldenström macroglobulinemia cells) expressing the Myd88 L265P mutation were used to test different drugs for their effects on cell proliferation and apoptosis. Midostaurin (an inhibitor of FLT3, mido) was used as reference control.
(§2) MWCL-1 cells were cultured in RPMI1640, in presence of 2, 10 and 25% of fetal bovine serum (FBS). The number of MWCL-1 cells decreased only at higher Compound A concentration (50 and 100 μM), during a 24 h treatment, at 2, 10 and 25% FBS (FIGS. 6A, 7A and 8A). Also, the levels of caspase 3/7 activity in the cells were elevated only at the higher concentrations (50 and 100 μM, FIGS. 6B, 7B and 8B), which is consistent with the decreased cell growth.

[2] = system: human adipose stromal cells (ASC); experiment: caspase 3/7 activity (apoptosis) in human adipose stromal cells; conditions: 25% FBS, 24 h; for activity of caspase 3 or 7 / induction of apoptosis in ASC: all tested concentrations (up to 100 μM)
Protocol: (§3) MOLM-13 cells were cultured in RPMI1640, red phenol free, in presence of 2, 10 and 25% of fetal bovine serum (FBS). 25% FBS simulates the level of serum present in the blood. Adipose stromal cells (ASC) and human fibroblast primary cells were used as reference controls. Compound A, at various concentrations (0.05 to 100 μM), was added to the cells and incubated for 24 h, with or without the co-treatment with olaparib (a PARP inhibitor, Ola). Olaparib or ibrutinib (a BTK inhibitor) alone was also tested with these cells.

[3] = system: human adipose stromal cells (ASC); experiment: cell number (proliferation) of human adipose stromal cells after 24 h treatment; conditions: 25% FBS; for ASC growth / ASC number as compared to vehicle control: at 100 μM
Protocol: as §3

[4] = system: MOLM-13 cells (adult acute myeloid leukemia) expressing the FLT3-ITD mutation; experiment: cell number (proliferation) of MOLM-13 cells expressing FLT3-ITD
Protocol: (§4) In this example, MOLM-13 cells (adult acute myeloid leukemia) expressing the FLT3-ITD mutation were used to test Compound A to decrease their cell proliferation and increase their apoptosis level. Midostaurin (mido), an inhibitor of FLT3, was used as a positive control.
as §3

[5] = system: MOLM-13 cells (adult acute myeloid leukemia) expressing the FLT3-ITD mutation; experiment: caspase 3/7 activity (apoptosis) in MOLM-13 cells expressing FLT3-ITD
Protocol: as §4, §3

[6] = system: human fibroblast primary cells; experiment: caspase 3/7 activity (apoptosis) in human fibroblast primary cells; conditions: 25% FBS, 24 h
Protocol: as §3

[7] = system: human fibroblast primary cells; experiment: cell growth (proliferation) of human fibroblast primary cells; conditions: at 100 μM, but not at lower concentrations; 25% FBS; 24 h
Protocol: as §3

[8] = system: MWCL-1 cells (adult Waldenström macroglobulinemia cells) expressing the Myd88 L265P mutation; experiment: cell number (proliferation) of MWCL-1 cells expressing Myd88 L265P
Protocol: as §1, §2

[9] = alone, at 10 μM, 2, 10 or 25% FBS
[10] = 1 to 100 μM, dose-dependent, 2% or 10% FBS, 24 h

| Compound | caspase 3/7 activity in MWCL-1 cells ([1]; at 50, 100 μM, 25% FBS) | activity of caspase 3 or 7 / induction of apoptosis in ASC [2] | ASC growth / ASC number as compared to vehicle control [3] | numbers of MOLM-13 cells [4, 9] | apoptotic levels of MOLM-13 cells [5, 9] | levels of caspase 3/7 activity in MWCL-1 cells ([1]; only at 50 and 100 μM, 24 h, 2, 10 and 25% FBS) | cell number increase of human ASC as compared to vehicle control ([3]; at 50 and 100 μM but not at lower concentrations) | numbers of MOLM-13 cells [4, 10] | response of MOLM-13 cells to anti-cancer effects (proliferation and apoptosis) ([4]; 25% FBS, 24 h) | efficiency compared with the other compound (cell numbers and caspase 3/7 activity, MOLM-13) ([4]; at higher doses) | apoptosis of the fibroblasts ([6]; tested concentrations) | cell growth of human fibroblast primary cells [7] | efficiency compared with midostaurin (MWCL-1 cell number and caspase 3/7 activity) ([8]; both at 100 μM, 25% FBS) | number of MWCL-1 cells ([8]; only at 50 and 100 μM, 24 h treatment, 2, 10 and 25% FBS) | level of caspase 3/7 activity in MOLM-13 cells [5, 10] | apoptosis (caspase 3/7 activities) of ASC ([2]; at 100 μM, but not at lower concentrations) | caspase 3/7 activities in the fibroblasts ([6]; at 100 μM) |
| --- | --- | --- | --- | --- | --- | --- | --- | --- | --- | --- | --- | --- | --- | --- | --- | --- | --- |
| 4-[(3-[(4-cyclopropylcarbonyl)piperazin-1-yl]carbonyl)-4-fluorophenyl]methyl(2H)phthalazin-1-one [olaparib, reference compound] | increased the caspase 3/7 activity | did not induce apoptosis | inhibited ASC growth | did not decrease | increased the apoptotic levels | – | – | – | – | – | – | – | – | – | – | – | – |
| CN1CCN(C(=O)CCCc2cn(-c3ccccc3)c(NC(=O)c3cccc(-c4cnn(C)c4)c3)n2)CC1 [Compound A, 3-(1-methyl-1H-pyrazol-4-yl)-N-(4-(4-(4-methylpiperazin-1-yl)-4-oxobutyl)-1-phenyl-1H-imidazol-2-yl)benzamide] | – | did not change the activity of caspase 3 or 7 | – | – | – | elevated | slower cell number increase | decreased | responded to the anti-cancer effects | more efficient at higher doses than midostaurin | No apoptosis | slower cell growth | more efficient than midostaurin | decreased | elevated | – | – |
| C=CC(=O)N1CCC[C@@H](n2nc(-c3ccc(Oc4ccccc4)cc3)c3c(N)ncnc32)C1 [ibrutinib, 1-[(3R)-3-[4-Amino-3-(4-phenoxyphenyl)-1H-pyrazolo[3,4-d]pyrimidin-1-yl]piperidin-1-yl]prop-2-en-1-one] | – | – | decrease of ASC number | – | – | – | – | – | – | – | – | – | – | – | – | induced apoptosis | increased the caspase 3/7 activities |
